The target in assay [1] is T1, EGFR (L858R T790M C797S) (Homo sapiens, UniProt P00533, C797S/L858R/T790M).
T1 construct: purchased SignalChem E10-122VG
The experiment in a line: Biochemical EGFR inhibition assay (Caliper mobility shift), EGFR LRTMCS mutant. The protocol:
Reactions proceeded until between 10% to 20% total peptides were phosphorylated at room temperature (25° C.) and were terminated with 35 mM 2,2′,2″,2′″-(ethane-1,2-diyldinitrilo)tetraacetic acid (EDTA). Product was detected using the Caliper mobility shift detection method where the phosphorylated peptide (product) and substrate were electrophoretically separated and measured. Percent activity was plotted against log concentration of compound and points to generate an apparent IC50.

Assay [2] has as its target T2, EGFR L858R T790M in NCI-H1975 cell line (Homo sapiens, UniProt P00533, L858R/T790M).
T2 construct: host or cells: NCI-H1975
The experiment in a line: NCI-H1975 pEGFR AlphaLISA assay. Conditions: NCI-H1975 cells (EGFR L858R T790M), p-EGFR (Tyr1068), 4-5 hours incubation; read-out: Ext pEGFR H1975 GMean IC50 (nM) Protocol: @Pharmaron AlphaLISA (Num). It is filed as cell-based. As to the method:
The NCI-H1975 cells were seeded at 12.5K/well in 22 μL into 384 well opti plate (PerkinElmer, 6007299) and adhering overnight at 37C/5% CO2. On the next day, the test compounds and DMSO control were added into H1975 cell plate followed by incubation at 37C/5% CO2 for 4-5 hours. […] Then 5 μL of a donor bead mix was added to each well followed by overnight incubation at room temperature in dark. On the next day, the plate was read at a compatible plate reader to obtain pEGFR signal. Percent of pEGFR inhibition was plotted against log concentration of compounds to generate IC50 values.

The mark [3] stands for this setting: LRTMCS (PH) IC50 (nM) @ 1 mM ATP (Num).
[4] abbreviates: read-out: LRTMCS (PH) IC50 (nM) @ 1 mM ATP (Num).

Where a name gives a salt, the structure may show the parent alone. Read-outs that look alike come from different tables or passages of the source. A value given as a limit tells only on which side of the number the result lay.

T2 sequence (P00533 25-1210 T790M/L858R): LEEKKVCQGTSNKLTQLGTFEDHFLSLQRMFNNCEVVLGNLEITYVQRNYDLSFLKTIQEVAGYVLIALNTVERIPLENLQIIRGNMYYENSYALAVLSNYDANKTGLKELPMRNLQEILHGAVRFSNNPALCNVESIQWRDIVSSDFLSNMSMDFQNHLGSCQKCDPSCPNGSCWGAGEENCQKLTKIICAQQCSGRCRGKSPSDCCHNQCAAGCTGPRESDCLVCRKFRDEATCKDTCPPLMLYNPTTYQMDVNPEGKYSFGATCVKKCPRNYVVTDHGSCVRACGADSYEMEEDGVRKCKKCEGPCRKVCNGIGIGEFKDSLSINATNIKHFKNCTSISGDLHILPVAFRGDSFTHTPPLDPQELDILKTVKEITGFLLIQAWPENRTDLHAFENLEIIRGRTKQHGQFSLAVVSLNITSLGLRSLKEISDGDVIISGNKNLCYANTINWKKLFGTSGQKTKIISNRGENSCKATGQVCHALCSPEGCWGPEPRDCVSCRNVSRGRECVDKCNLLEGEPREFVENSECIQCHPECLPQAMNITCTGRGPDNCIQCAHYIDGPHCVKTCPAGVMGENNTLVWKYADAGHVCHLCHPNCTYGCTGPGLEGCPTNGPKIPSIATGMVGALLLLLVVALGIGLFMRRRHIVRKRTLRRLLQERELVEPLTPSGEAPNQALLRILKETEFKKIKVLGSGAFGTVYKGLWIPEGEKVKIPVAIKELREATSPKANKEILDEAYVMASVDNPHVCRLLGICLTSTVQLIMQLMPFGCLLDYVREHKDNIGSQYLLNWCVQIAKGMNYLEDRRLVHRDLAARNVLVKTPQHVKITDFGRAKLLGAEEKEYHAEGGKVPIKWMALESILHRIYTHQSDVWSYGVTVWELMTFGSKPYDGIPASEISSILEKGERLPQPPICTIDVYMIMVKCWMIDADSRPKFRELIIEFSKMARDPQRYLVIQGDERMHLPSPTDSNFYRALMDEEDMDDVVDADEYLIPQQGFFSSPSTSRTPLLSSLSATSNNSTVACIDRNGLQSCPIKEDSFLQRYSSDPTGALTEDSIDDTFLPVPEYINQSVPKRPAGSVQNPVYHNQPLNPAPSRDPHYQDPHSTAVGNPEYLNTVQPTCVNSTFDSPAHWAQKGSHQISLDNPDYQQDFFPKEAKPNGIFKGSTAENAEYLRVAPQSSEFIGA
T1 sequence (P00533 25-1210 T790M/C797S/L858R): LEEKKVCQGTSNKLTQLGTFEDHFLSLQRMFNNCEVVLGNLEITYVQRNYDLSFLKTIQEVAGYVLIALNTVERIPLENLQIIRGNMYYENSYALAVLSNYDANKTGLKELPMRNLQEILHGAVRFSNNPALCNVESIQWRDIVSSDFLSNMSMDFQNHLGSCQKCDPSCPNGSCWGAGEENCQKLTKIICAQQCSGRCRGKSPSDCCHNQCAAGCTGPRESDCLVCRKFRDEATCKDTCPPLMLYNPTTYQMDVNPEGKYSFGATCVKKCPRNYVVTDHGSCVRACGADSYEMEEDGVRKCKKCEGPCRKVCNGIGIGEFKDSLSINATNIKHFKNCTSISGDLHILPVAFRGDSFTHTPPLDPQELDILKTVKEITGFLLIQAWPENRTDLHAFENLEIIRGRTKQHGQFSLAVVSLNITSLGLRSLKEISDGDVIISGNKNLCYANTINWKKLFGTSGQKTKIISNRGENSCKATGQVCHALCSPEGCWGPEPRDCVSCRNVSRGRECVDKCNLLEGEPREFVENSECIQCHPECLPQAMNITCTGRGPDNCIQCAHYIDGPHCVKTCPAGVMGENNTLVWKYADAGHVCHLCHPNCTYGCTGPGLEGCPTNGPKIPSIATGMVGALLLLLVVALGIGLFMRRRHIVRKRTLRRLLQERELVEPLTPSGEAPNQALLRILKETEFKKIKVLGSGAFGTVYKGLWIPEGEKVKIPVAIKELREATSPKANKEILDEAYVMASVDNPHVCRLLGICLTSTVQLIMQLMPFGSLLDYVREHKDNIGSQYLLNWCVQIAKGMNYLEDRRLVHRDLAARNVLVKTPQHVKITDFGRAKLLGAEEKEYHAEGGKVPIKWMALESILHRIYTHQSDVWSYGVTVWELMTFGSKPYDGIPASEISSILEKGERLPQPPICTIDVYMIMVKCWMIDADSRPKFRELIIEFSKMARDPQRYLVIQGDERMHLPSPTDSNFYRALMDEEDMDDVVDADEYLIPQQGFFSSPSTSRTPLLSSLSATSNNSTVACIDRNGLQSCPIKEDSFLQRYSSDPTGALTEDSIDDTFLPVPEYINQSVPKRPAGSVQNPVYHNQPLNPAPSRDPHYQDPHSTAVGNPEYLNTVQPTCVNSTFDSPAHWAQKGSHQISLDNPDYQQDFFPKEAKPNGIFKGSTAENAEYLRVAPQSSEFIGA

With `CC(C)c1cnc(C(=O)N[C@H]2CNC[C@H]2F)c2cnc(Nc3ccnc(N4CC[C@@H](O)[C@@](C)(F)C4)n3)cc12` (racemic) [Example 85, 6-((2-((3S,4R)-3-fluoro-4-hydroxy-3-methylpiperidin-1-yl)pyrimidin-4-yl)amino)-N-((3S,4R)-4-fluoropyrrolidin-3-yl)-4-isopropyl-2,7-naphthyridine-1-carboxamide trifluoroacetate and 6-((2-((3S,4R)-3-fluoro-4-hydroxy-3-methylpiperidin-1-yl)pyrimidin-4-yl)amino)-N-((3R,4S)-4-fluoropyrrolidin-3-yl)-4-isopropyl-2,7-naphthyridine-1-carboxamide trifluoroacetate], the IC50 is less than 15 nM in assay [1] (setting [3]) and 10 to 20 nM in assay [2].
Take `CC(C)c1cnc(C(=O)N[C@@H]2CNC[C@H]2F)c2cnc(Nc3ccnc(N4CC[C@@H](O)[C@@](C)(F)C4)n3)cc12` (racemic) [Example 86, 6-((2-((3S,4R)-3-fluoro-4-hydroxy-3-methylpiperidin-1-yl)pyrimidin-4-yl)amino)-N-((3R,4R)-4-fluoropyrrolidin-3-yl)-4-isopropyl-2,7-naphthyridine-1-carboxamide trifluoroacetate and 6-((2-((3S,4R)-3-fluoro-4-hydroxy-3-methylpiperidin-1-yl)pyrimidin-4-yl)amino)-N-((3S,4S)-4-fluoropyrrolidin-3-yl)-4-isopropyl-2,7-naphthyridine-1-carboxamide trifluoroacetate]: the IC50 in assay [1] (setting [3]) was 20 to 30 nM; in assay [2], more than 50 nM.
With `CO[C@@H]1CCN(c2nccc(Nc3cc4c(C(C)C)ccc(NCC5CNC[C@@H]5S(C)(=O)=O)c4cn3)n2)C[C@@H]1F` (single isomer, unassigned) [Example 1, N3-(2-((3S,4R)-3-fluoro-4-methoxypiperidin-1-yl)pyrimidin-4-yl)-5-isopropyl-N8-(((4R)-4-(methylsulfonyl)pyrrolidin-3-yl)methyl)isoquinoline-3,8-diamine or N3-(2-((3S,4R)-3-fluoro-4-methoxypiperidin-1-yl)pyrimidin-4-yl)-5-isopropyl-N8-(((4S)-4-(methylsulfonyl)pyrrolidin-3-yl)methyl)isoquinoline-3,8-diamine], the results for the IC50 in assay [1] (setting [3]) and in assay [2] were less than 15 nM and 30 to 50 nM, respectively.
Take `CC(C)c1cnc(NC[C@H](C)N(C)C)c2cnc(Nc3ccnc(N4CC[C@@H](O)[C@@](C)(F)C4)n3)cc12` (single isomer, unassigned) [Example 4, (3S,4R)-1-(4-((8-(((S)-2-(dimethylamino)propyl)amino)-5-isopropyl-2,7-naphthyridin-3-yl)amino)pyrimidin-2-yl)-3-fluoro-3-methylpiperidin-4-ol or (3S,4R)-1-(4-((8-(((R)-2-(dimethylamino)propyl)amino)-5-isopropyl-2,7-naphthyridin-3-yl)amino)pyrimidin-2-yl)-3-fluoro-3-methylpiperidin-4-ol]: the values for the IC50 in assay [1] (setting [3]) and in assay [2] were 30 to 100 nM and more than 50 nM, respectively.
Turning to `CC(C)c1ccc(OC[C@H]2CCC(=O)N2C)c2cnc(Nc3ccnc(N4CCC(C)(O)CC4)n3)cc12` (single isomer, unassigned) [Example 19, (R)-5-(((3-((2-(4-hydroxy-4-methylpiperidin-1-yl)pyrimidin-4-yl)amino)-5-isopropylisoquinolin-8-yl)oxy)methyl)-1-methylpyrrolidin-2-one or (S)-5-(((3-((2-(4-hydroxy-4-methylpiperidin-1-yl)pyrimidin-4-yl)amino)-5-isopropylisoquinolin-8-yl)oxy)methyl)-1-methylpyrrolidin-2-one], the IC50 in assay [1] (setting [3]) was less than 15 nM; in assay [2] it was 10 to 20 nM.
For the molecule `CC(C)c1ccc(OC[C@@H]2CC(=O)N(C)C2)c2cnc(Nc3ccnc(N4CC[C@@H](O)[C@@](C)(F)C4)n3)cc12` (single isomer, unassigned) [Example 20], the IC50 is less than 15 nM in assay [1] (setting [3]) and 10 to 20 nM in assay [2].
On to `CC(C)c1ccc(OC[C@@H]2CC(=O)N(C)C2)c2cnc(Nc3ccnc(N4CC[C@@H](O)[C@@](C)(F)C4)n3)cc12` (single isomer, unassigned) [Example 21], for which the IC50 in assay [1] (setting [4]) was less than 15 nM; in assay [2], less than 10 nM.
Take `CC(C)c1ccc(OC[C@H]2COC(=O)N2C)c2cnc(Nc3ccnc(N4CC[C@@](C)(O)[C@@H](F)C4)n3)cc12` (single isomer, unassigned) [Example 22]: the IC50 in assay [1] (setting [3]) was 15 to 20 nM; in assay [2], more than 50 nM.
`CC(C)c1ccc(OC[C@H]2COC(=O)N2C)c2cnc(Nc3ccnc(N4CC[C@@](C)(O)[C@@H](F)C4)n3)cc12` (single isomer, unassigned) [Example 23]: the IC50 in assay [1] (setting [4]) lay in the range of 15 to 20 nM; in assay [2], 30 to 50 nM.
As for `CC(=O)N1CC([C@@H](C)Oc2ccc(C(C)C)c3cc(Nc4ccnc(N5CC[C@@H](O)[C@@](C)(F)C5)n4)ncc23)C1` (single isomer, unassigned) [Example 24, 1-(3-((R)-1-((3-((2-((3S,4R)-3-fluoro-4-hydroxy-3-methylpiperidin-1-yl)pyrimidin-4-yl)amino)-5-isopropylisoquinolin-8-yl)oxy)ethyl)azetidin-1-yl)ethan-1-one or 1-(3-((S)-1-((3-((2-((3S,4R)-3-fluoro-4-hydroxy-3-methylpiperidin-1-yl)pyrimidin-4-yl)amino)-5-isopropylisoquinolin-8-yl)oxy)ethyl)azetidin-1-yl)ethan-1-one], the values for the IC50 in assay [1] (setting [3]) and in assay [2] were less than 15 nM and less than 10 nM, respectively.
`CC(=O)N1CC(COc2cccc3cc(Nc4ccnc(N5C[C@@H](F)[C@@H](O)C(C)(C)C5)n4)ncc23)C1` (single isomer, unassigned) [Example 42, 1-(3-(((3-((2-((4S,5R)-5-fluoro-4-hydroxy-3,3-dimethylpiperidin-1-yl)pyrimidin-4-yl)amino)isoquinolin-8-yl)oxy)methyl)azetidin-1-yl)ethenone or 1-(3-(((3-((2-((4R,5S)-5-fluoro-4-hydroxy-3,3-dimethylpiperidin-1-yl)pyrimidin-4-yl)amino)isoquinolin-8-yl)oxy)methyl)azetidin-1-yl)ethenone]: the IC50 in assay [1] (setting [3]) is 20 to 30 nM; in assay [2], more than 50 nM.
For `CC(C)c1ccc(OCCn2cnnc2)c2cnc(Nc3ccnc(N4CC[C@H]5COC[C@H]54)n3)cc12` (single isomer, unassigned) [Example 50], in that order: 20 to 30 nM and more than 50 nM.
Regarding `CC(C)c1ccc(OCCn2cnnc2)c2cnc(Nc3ccnc(N4CC[C@H]5COC[C@H]54)n3)cc12` (single isomer, unassigned) [Example 51], the IC50 in assay [1] (setting [4]) is 20 to 30 nM; in assay [2], more than 50 nM.
`CO[C@@H]1CCN(c2nccc(Nc3cc4c(C(C)C)ccc(OCC5CN(C(C)=O)C5)c4cn3)n2)C[C@@H]1O` (single isomer, unassigned) [Example 56, 1-(3-(((3-((2-((3S,4R)-3-hydroxy-4-methoxypiperidin-1-yl)pyrimidin-4-yl)amino)-5-isopropylisoquinolin-8-yl)oxy)methyl)azetidin-1-yl)ethan-1-one or 1-(3-(((3-((2-((3R,4S)-3-hydroxy-4-methoxypiperidin-1-yl)pyrimidin-4-yl)amino)-5-isopropylisoquinolin-8-yl)oxy)methyl)azetidin-1-yl)ethan-1-one]: the IC50 in assay [1] (setting [3]) was less than 15 nM; in assay [2] it was 30 to 50 nM.
